{"source": "patent US12714686B2", "about": "“N-propargylglycine: a unique inhibitor of proline dehydrogenase with brain-enhancing mitohormesis properties capable of mitigating the pathogenesis of neurodegenerative disorders” (Buck Institute for Research on Aging, priority 2020, dated 2026)", "key": {"[1]": {"system": "mouse brain transcriptome", "assay": "Study A: whole brain transcriptome (RNAseq) and pathway analysis", "format": "in vivo", "experimental": "(§1) For Study A, beginning at 5 weeks of age, seven male and female mice (WT) were daily administered oral N-PPG over a graduated dose range of 50 mg/kg to 200 mg/kg for 9 days, while 4 other age- and sex-matched control mice (W) were given only daily saline.\n(§2) For Study B, beginning at 5-weeks of age, four male and female Htt-mut mice (HT) were administered oral N-PPG at 50 mg/kg daily for 9 days, while four other age- and sex-matched Htt-mut mice (H) were given only daily saline. All Study A and B mice were sacrificed within 4 h of receiving their last treatment (week 7). […] Excised brains were snap frozen in liquid nitrogen for latter cryopulverization, extraction and analysis of total brain RNA and protein."}, "[2]": {"biological_target": "T1, PRODH (Mus musculus, UniProt Q9WU79)", "T1 construct": "Western blots of whole brain lysates from wildtype B6/CBA mice; from tissue; R6/2 Htt-mut in B6/CBA background", "T1 sequence (Q9WU79 1-599)": "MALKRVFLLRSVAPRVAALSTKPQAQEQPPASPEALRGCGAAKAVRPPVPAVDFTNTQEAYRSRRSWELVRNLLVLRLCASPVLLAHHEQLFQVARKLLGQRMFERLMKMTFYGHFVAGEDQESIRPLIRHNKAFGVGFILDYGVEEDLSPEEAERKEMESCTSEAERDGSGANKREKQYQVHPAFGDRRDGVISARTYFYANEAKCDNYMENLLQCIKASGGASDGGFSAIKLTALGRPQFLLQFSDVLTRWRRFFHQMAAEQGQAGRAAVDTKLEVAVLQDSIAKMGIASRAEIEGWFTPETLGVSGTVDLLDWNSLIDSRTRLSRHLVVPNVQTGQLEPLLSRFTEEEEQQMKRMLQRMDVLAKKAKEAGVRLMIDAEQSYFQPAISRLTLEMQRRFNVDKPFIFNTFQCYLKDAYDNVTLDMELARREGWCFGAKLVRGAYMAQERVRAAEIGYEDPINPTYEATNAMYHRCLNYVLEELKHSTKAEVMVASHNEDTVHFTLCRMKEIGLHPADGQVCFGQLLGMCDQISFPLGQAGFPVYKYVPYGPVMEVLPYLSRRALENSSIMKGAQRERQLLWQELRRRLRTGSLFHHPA", "assay": "Study B: oral N-PPG in Htt-mut (R6/2) mice, whole brain PRODH protein", "format": "in vivo", "settings": "HT mice, 50 mg/kg/day orally x 9 days vs saline, compared with wildtype", "experimental": "as §2"}, "[3]": {"assay": "Tolerability of oral N-PPG in Study A and B mice (body weight, vitality, side effects)", "format": "in vivo, mouse", "experimental": "as §1, §2"}, "[4]": {"system": "YME1L1", "assay": "Study A: brain UPRmt protease YME1L1 mRNA and protein expression", "format": "in vivo, mouse", "experimental": "as §1, §2"}, "[5]": {"system": "Htt-mut mouse brain transcriptome", "assay": "Study B: whole brain RNA transcriptome (RNAseq) of Htt-mut mice", "format": "in vivo", "experimental": "as §2"}, "[6]": {"system": "PRODH expressing mammalian cell systems", "assay": "UPRmt activation and mitohormesis induction in PRODH expressing mammalian cell systems", "format": "cell-based", "settings": "all PRODH expressing mammalian cell systems studied to date"}, "[7]": {"system": "YME1L1", "assay": "Study B: brain YME1L1 in Htt-mut and wildtype mice", "format": "in vivo, mouse", "settings": "50 mg/kg/day oral N-PPG, 9 days", "experimental": "as §2"}, "[8]": {"system": "HSP-60", "assay": "Study A: brain chaperone HSP-60 transcripts by RT-PCR", "format": "in vivo", "settings": "single mouse brain, 200 mg/kg oral N-PPG, 9 days", "experimental": "as §1, §2"}, "[9]": {"assay": "Brain penetration of orally administered N-PPG", "format": "in vivo", "settings": "oral, repeated administration; inferred from brain UPRmt induction"}, "[10]": {"biological_target": "T1, PRODH", "assay": "Study A: oral N-PPG in wildtype mice, whole brain PRODH protein (western blot) and mRNA", "format": "in vivo", "settings": "whole brain lysates", "experimental": "as §1, §2"}, "[11]": {"biological_target": "T2, proline dehydrogenase (PRODH) (Homo sapiens, UniProt O43272)", "T2 sequence (O43272 1-600)": "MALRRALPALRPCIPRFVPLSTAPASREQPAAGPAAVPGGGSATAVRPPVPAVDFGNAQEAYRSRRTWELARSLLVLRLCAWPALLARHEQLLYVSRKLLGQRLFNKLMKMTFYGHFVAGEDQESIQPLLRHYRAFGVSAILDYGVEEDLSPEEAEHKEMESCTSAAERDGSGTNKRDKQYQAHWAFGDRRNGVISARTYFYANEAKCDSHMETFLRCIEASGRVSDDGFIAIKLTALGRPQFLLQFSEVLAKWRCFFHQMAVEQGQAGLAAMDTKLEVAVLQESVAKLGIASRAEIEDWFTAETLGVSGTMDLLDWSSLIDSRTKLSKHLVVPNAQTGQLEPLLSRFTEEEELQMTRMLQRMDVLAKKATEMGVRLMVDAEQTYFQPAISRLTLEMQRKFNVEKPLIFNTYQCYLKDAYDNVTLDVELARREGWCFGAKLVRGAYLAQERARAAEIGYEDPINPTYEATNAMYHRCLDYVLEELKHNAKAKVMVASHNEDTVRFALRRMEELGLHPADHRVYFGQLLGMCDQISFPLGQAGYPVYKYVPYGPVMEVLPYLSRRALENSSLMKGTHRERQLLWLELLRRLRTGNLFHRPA", "assay": "PRODH enzyme inhibition", "format": "biochemical"}, "[12]": {"settings": "over-representation analysis, FDR p<0.05"}}, "note": "“Also recorded” adds a separate entry of the source.", "data": [{"smiles": "C#CCNCC(=O)O", "note": "[N-PPG, N-propargylglycine]", "values": [{"measurement": "whole brain transcriptome pathway analysis", "setting": "[1]; WT vs W mice, RNAseq, FDR p<0.05", "value": "upregulation of pathways (GO, Reactome) specifically regulating neuronal cell functions"}, {"measurement": "genes differentially expressed (p<0.05) between N-PPG treated and saline treated brains", "setting": "[1]; five WT (50 mg/kg, one 100 mg/kg, oral 9 days) vs four W brains, RNAseq", "value": 1324, "unit": "genes"}, {"measurement": "upregulated genes among the differentially expressed genes", "setting": "[1]; five WT vs four W brains, RNAseq", "value": 841, "unit": "genes"}, {"measurement": "Reactome neural pathways encoded by upregulated genes", "setting": "[1]; [12]", "value": 7}, {"measurement": "enriched Gene Ontology (GO) pathways encoded by upregulated genes", "setting": "[1]; [12]", "value": 77}, {"measurement": "brain PRODH protein decay in Htt-mut mice", "setting": "[2]", "value": "partial mitochondrial PRODH protein degradation"}, {"measurement": "health of mice at sacrifice (repeated body weight and vitality measurements)", "setting": "[3]; all Study A and B mice, week 7", "value": "healthy and asymptomatic"}, {"measurement": "systemic or neurologic side effects", "setting": "[3]; mice, daily oral 50 to 200 mg/kg N-PPG, 9 days", "value": "without any systemic or neurologic side effects; also recorded: without causing any adverse systemic or neurologic consequences"}, {"measurement": "mitochondrial YME1L1 mRNA and protein expression", "setting": "[4]; WT mice, 50 mg/kg dose, brain", "value": "increased"}, {"measurement": "induction of mitochondrial protease YME1L1 transcripts relative to housekeeping transcripts", "setting": "[4]; single mouse brain, 200 mg/kg oral N-PPG, 9 days, RT-PCR", "value": 1.4, "unit": "fold"}, {"measurement": "increase in mean YME1L1 expression (signals normalized to β-actin or Rieske)", "setting": "[4]; wildtype mice, 50 mg/kg oral N-PPG vs saline, whole brain lysates, western blot", "value": "~ 40%"}, {"measurement": "normalization of deranged whole brain transcriptome of Htt-mut mice", "setting": "[5]; HT mice, 50 mg/kg/day orally x 9 days vs untreated H, includes TH, DRD1, ADORA2A, 50 mg/kg/day", "value": "partial-to complete normalization; also recorded: normalizes HT transcriptomes away from Htt-mut (H) and more toward wildtype (W)"}, {"measurement": "differentially expressed genes between WT, HT, W and H brains", "setting": "[5]; Study B, RNAseq, FDR p<0.05", "value": 622, "unit": "genes"}, {"measurement": "Htt-mut treated mice with full transcriptome normalization", "setting": "[5]; four HT mice, 50 mg/kg/day orally x 9 days", "value": "one of the four"}, {"measurement": "activation of UPRmt and induction of mitohormesis", "setting": "[6]", "value": "activate the mitochondrial unfolded protein response (UPRmt) and induce mitohormesis"}, {"measurement": "brain YME1L1 in Htt-mut and wildtype mice", "setting": "[7]", "value": "YME1L1 upregulation"}, {"measurement": "induction of chaperone HSP-60 transcripts relative to housekeeping transcripts", "setting": "[8]", "value": 1.7, "unit": "fold"}, {"measurement": "crossing of the blood-brain-barrier", "setting": "[9]", "value": "capable of crossing the mammalian blood-brain-barrier"}, {"measurement": "reduction in mean PRODH expression (PRODH signals normalized to β-actin or Rieske)", "setting": "[10]; wildtype B6/CBA mice, oral 50 mg/kg N-PPG for nine days vs saline", "value": "at least 30%"}, {"measurement": "normalized mean PRODH expression levels", "setting": "[10]; wildtype mice, oral saline, 50, 100, 150 or 200 mg/kg N-PPG", "value": "dose-dependent decline"}]}, {"smiles": "O=C(O)C1CCCO1", "note": "(centres unmarked) [THFA]", "values": [{"measurement": "PRODH enzyme inhibiting potency relative to N-PPG", "setting": "[11]", "value": "comparable"}, {"measurement": "activation of UPRmt and induction of mitohormesis", "setting": "[6]", "value": "do not activate the UPRmt or induce mitohormesis"}]}, {"smiles": "O=C1CCC(C(=O)O)O1", "note": "(centres unmarked) [5-oxo]", "values": [{"measurement": "PRODH enzyme inhibiting potency relative to N-PPG", "setting": "[11]", "value": "comparable"}, {"measurement": "activation of UPRmt and induction of mitohormesis", "setting": "[6]", "value": "do not activate the UPRmt or induce mitohormesis"}]}, {"smiles": "O=C(O)C1NCCS1", "note": "(centres unmarked) [T2C]", "values": [{"measurement": "PRODH enzyme inhibiting potency relative to N-PPG", "setting": "[11]", "value": "comparable"}, {"measurement": "activation of UPRmt and induction of mitohormesis", "setting": "[6]", "value": "do not activate the UPRmt or induce mitohormesis"}]}]}
